Experimental data reported in patent publication US11666594B2, “Antibody-drug conjugates comprising a cyclic dinucleotide” (TAKEDA PHARMACEUTICAL COMPANY LIMITED, priority 2016, dated 2023).
Where a name gives a salt, the structure may show the parent alone. Read-outs that look alike come from different tables or passages of the source.

Experiments:
WT STING = WT STING (Homo sapiens (Human), UniProt Q86WV6, H232R); assay: Reporter gene assay (2): ISRE NanoLuc reporter in 293T cells, with digitonin, WT STING; assay type: cell-based; settings: for EC50: with digitonin, read-out: STING-293T cell EC50 (μM) Reporter with digitonin (B); for activation at 30 µM: HEK-293T, read-out: activity level against WT STING of test compound (30 μM)
Chain of WT STING (Q86WV6 whole entry H232R): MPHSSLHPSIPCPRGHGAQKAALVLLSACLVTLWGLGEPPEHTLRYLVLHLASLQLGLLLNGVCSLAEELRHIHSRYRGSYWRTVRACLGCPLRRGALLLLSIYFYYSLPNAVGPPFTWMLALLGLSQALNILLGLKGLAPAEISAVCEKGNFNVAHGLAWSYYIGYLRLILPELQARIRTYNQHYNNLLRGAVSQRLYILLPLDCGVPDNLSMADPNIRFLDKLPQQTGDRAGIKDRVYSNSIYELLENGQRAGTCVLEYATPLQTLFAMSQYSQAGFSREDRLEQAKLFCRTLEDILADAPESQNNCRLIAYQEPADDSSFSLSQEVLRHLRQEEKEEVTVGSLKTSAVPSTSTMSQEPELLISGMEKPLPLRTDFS
Experimental: The culture solution was removed, and the test compound diluted with assay buffer (50 mM HEPES pH 7.0, 100 mM KCl, 3 mM MgCl2, 85 mM Sucrose, 0.1 mM DTT, 0.2% BSA, 1 mM ATP, 0.1 mM GTP, 10 μg/ml Digitonin) was added thereto by 15 μL/well. […] Luminescence signals derived from firefly luciferase and NanoLuc Luciferase were each measured using EnVision (PerkinElmer, Waltham, Mass., US) according to Nano-Glo Dual-Luciferase Reporter Assay System (Promega, Fitchburg, Wis., US) protocol. The ratio of the count of NanoLuc Luciferase divided by the count of firefly luciferase was used for culculation.

B16F10 mouse tumor cells = assay: Anti-tumor effect in B16F10 syngeneic mice model; assay type: in vivo; settings: B16F10, C57BL/6 mice; intravenous, q3dx3; Ex3a 30 mg/kg, Ex14 1.0 mg/kg
Experimental: (§1) 8×10^4 B^16F10 and 2×10^5 CT-26 mouse tumor cells were subcutaneously implanted in the flank of female C57BL/6 (B16F10) and Balb/C (CT-26) mice (n=7 per group). Vehicle (1×PBS), compound Ex3a (30 mg/kg) or Ex14 (1.0 mg/kg) were intravenously administered (final volume of […]) to tumor-bearing mice once the tumor volume has reached 100 mm^3 (Day 0). Vehicle, Ex3a or Ex14 were given every 3 days for a total of 3 doses (q3dx3). Tumor and body weight measurements were taken three times per week using vernier calipers and mettler scale, respectively. Tumor volumes were determined by multiplying the square of the width (‘W’), measured along the […] of the tumor, by one-half the length (‘L’) measured along the […] of the tumor (V=W^2×0.5 L)

CT-26 mouse tumor cells = assay: Anti-tumor effect in colon carcinoma CT-26 syngeneic mice model; assay type: in vivo; settings: CT-26, Balb/C mice; intravenous, q3dx3; Ex3a 30 mg/kg, Ex14 1.0 mg/kg
Experimental: as §1

THP1-Dual cells = assay: THP-1 Dual Lucia reporter gene assay; assay type: cell-based, human; settings: 20 hours; read-out: THP-1 Dual cell EC50 (μM) Reporter
Experimental: THP1-Dual™ cells (InvivoGen #thpd-nfis) were derived from the human THP-1 monocyte cell line by stable integration of the Lucia luciferase gene, a secreted luciferase reporter gene, under the control of an ISG54 (interferon-stimulated gene) minimal promoter in conjunction with five interferon (IFN)-stimulated response elements. On the day of experiment, the cells were plated to a black, 384-well plate (Corning 356697) at 7500 cells/25 μL per well density in growth media (RPMI 1640, 2 mM L-glutamine, 25 mM HEPES, 10% heat-inactivated fetal bovine serum, 100 μg/mL Normocin™, 100 U/mL-100 μg/mL Pen-Strep, 10 μg/mL of blasticidin, and 100 μg/mL of Zeocin). The cell plates were dosed with 62.5 nL of the testing compounds, and then incubated at 37° C. for 20 hours. At the end of the incubation, 15 μL/well of the QUANTI-Luc™ (InvivoGen #rep-qlc1) were added, and luminescence was measured immediately using the LeadSeeker.

[1] = Human plasma stability assay; assay type: in vitro ADME; settings: elimination rate constant k; heparinized human plasma, 37° C., up to 24 hours
Experimental: The compound was incubated in heparinized human plasma at 37° C. for 0, 1, 2, 4, 8 and 24 hours, and the change in compound concentration was measured by LC/MS/MS method. The elimination rate constant (=k(/h)) was calculated based on the fitted curve assuming the exponential decrease of concentration as follows; concentration at time x=initial concentration*exp(−k*x).

[2] = test system: IRF3 phosphorylation in FaDu cell; assay: Phosphorylated IRF3 protein detection in FaDu cell; assay type: cell-based, human; settings: at 30 μM; 6 hr; 2′,3′-cGAMP 30 μM = 100%
Experimental: Human larynx cancer cell line FaDu cell (ATCC) was seeded, the medium was replaced with serum free medium one day after the seeding. After the replacement, the cell was cultured for one day, and to the cell were added the natural ligand 2′,3′-cGAMP (the final concentration; 30 μM) and test compound (the final concentration; 15 μM or 30 μM). 6 hr after the addition, the cell was washed with PBS, the cell extract was prepared, and the phosphorylated IRF3 protein was detected by ELISA method or Western blotting method. The IRF3 protein phosphorylation activity of the test compound was calculated when the value in the sample with adding the natural ligand 2′,3′-cGAMP at the final concentration of 30 μM was considered as 100%.

| EC50 (WT STING) [µM] | SMILES | anti-tumor effect (B16F10 mouse tumor cells) | anti-tumor effect (CT-26 mouse tumor cells) | Human plasma stability [1] [h⁻¹] | other results |
| --- | --- | --- | --- | --- | --- |
|  | Nc1ncnc2c1ncn2[C@@H]1O[C@@H]2COP(=O)(O)O[C@@H]3[C@H](O)[C@@H](COP(=O)(S)O[C@H]2[C@H]1F)O[C@H]3n1cc(F)c2c(=O)[nH]cnc21 (stereo partly drawn) [Example 2, 7-((5R,7R,8R,12aR,14R,15R,15aR,16R)-14-(6-amino-9H-purin-9-yl)-15-fluoro-10,16-dihydroxy-2,10-dioxido-2-sulfanyloctahydro-12H-5,8-methanofuro[3,2-1][1,3,6,9,11,2,10]pentaoxadiphosphacyclotetradecin-7-yl)-5-fluoro-3,7-dihydro-4H-pyrrolo[2,3-d]pyrimidin-4-one di-triethylamine salt (Optical Isomer)] |  |  |  | activity level of test compound (IRF3 protein phosphorylation) [2]: 88.7% at 30 μM |
| 0.19 | Nc1ncnc2c1ncn2[C@@H]1O[C@@H]2COP(=O)(S)O[C@@H]3[C@H](O)[C@@H](COP(=O)(S)O[C@H]2[C@H]1O)O[C@H]3n1cc(F)c2c(=O)[nH]cnc21 (stereo partly drawn) [Example 5, 7-((5R,7R,8R,12aR,14R,15R,15aS,16R)-14-(6-amino-9H-purin-9-yl)-15,16-dihydroxy-2,10-dioxido-2,10-disulfanyloctahydro-12H-5,8-methanofuro[3,2-1][1,3,6,9,11,2,10]pentaoxadiphosphacyclotetradecin-7-yl)-5-fluoro-3,7-dihydro-4H-pyrrolo[2,3-d]pyrimidin-4-one di-triethylamine salt (Optical Isomer)] |  |  | <0.01 | activation at 30 µM (WT STING; 30 μM, digitonin, 2′,3′-cGAMP (30 μM) = 100%): 102% |
| 0.13 | Nc1ncnc2c1ncn2[C@@H]1O[C@@H]2COP(=O)(S)O[C@@H]3[C@H](O)[C@@H](COP(=O)(S)O[C@H]2[C@H]1F)O[C@H]3n1cc(F)c2c(=O)[nH]cnc21 (stereo partly drawn) [Example 14, 7-((2R,5R,7R,8R,10R,12aR,14R,15R,15aR,16R)-14-(6-amino-9H-purin-9-yl)-15-fluoro-16-hydroxy-2,10-dioxido-2,10-disulfanyloctahydro-12H-5,8-methanofuro[3,2-1][1,3,6,9,11,2,10]pentaoxadiphosphacyclotetradecin-7-yl)-5-fluoro-3,7-dihydro-4H-pyrrolo[2,3-d]pyrimidin-4-one disodium salt] | anti-tumor effects were observed | anti-tumor effects were observed | <0.01 |  |
|  | Nc1nc2c(ncn2[C@@H]2O[C@@H]3COP(=O)(O)O[C@@H]4[C@H](O)[C@@H](COP(=O)(O)O[C@H]3[C@H]2F)O[C@H]4n2cc(F)c3c(=O)[nH]cnc32)c(=O)[nH]1 [Example 19, 2-amino-9-((5R,7R,8R,12aR,14R,15R,15aR,16R)-15-fluoro-7-(5-fluoro-4-oxo-3,4-dihydro-7H-pyrrolo[2,3-d]pyrimidin-7-yl)-2,10,16-trihydroxy-2,10-dioxidooctahydro-12H-5,8-methanofuro[3,2-1][1,3,6,9,11,2,10]pentaoxadiphosphacyclotetradecin-14-yl)-1,9-dihydro-6H-purin-6-one di-triethylamine salt] |  |  |  | activation at 30 µM (WT STING): 101% |
|  | Nc1nc2c(ncn2[C@@H]2O[C@@H]3COP(=O)(O)O[C@H]4[C@@H](O)[C@H](n5cnc6c(N)ncnc65)O[C@@H]4COP(=O)(O)O[C@@H]2[C@@H]3O)c(=O)[nH]1 [cGAMP, 2′,3′-cGAMP, reference compound] |  |  | 1.39 |  |

| SMILES | EC50 (WT STING) [µM] | anti-tumor effect (B16F10 mouse tumor cells) | anti-tumor effect (CT-26 mouse tumor cells) | Human plasma stability [1] [h⁻¹] | other results |
| --- | --- | --- | --- | --- | --- |
| Nc1ncnc2c1ncn2[C@@H]1O[C@@H]2COP(=O)(O)O[C@@H]3[C@H](O)[C@@H](COP(=O)(S)O[C@H]2[C@H]1F)O[C@H]3n1cc(F)c2c(=O)[nH]cnc21 (stereo partly drawn) [Ex3a, disodium (5R,7R,8R,2aR,14R,15R,5aR,16R)-14-(6-amino-9H-purin-9-yl)-15-fluoro-7-(5-fluoro-4-oxo-3,4-dihydro-7H-pyrrolo[2,3-d]pyrimidin-7-yl)-16-hydroxy-2-sulfidooctahydro-12H-5,8-methanofuro[3,2-1][1,3,6,9,11,2,10]pentaoxadiphosphacyclotetradecin-10-olate 2,10-dioxide] | 0.13 | anti-tumor effects were observed | anti-tumor effects were observed | 0.58 | EC50 (THP1-Dual cells): 5.6 µM |
